{"source": "patent US11203633B2", "about": "“Polynucleotides encoding antibodies or antigen binding fragments thereof that bind pseudomonas perv” (priority 2011, dated 2021)", "key": {"[1]": {"tested_on": "luminescent P. aeruginosa serogroup 011 strain (9882-80.lux)", "experiment": "OPK assay, 9882-80.lux", "type": "cell-based, Pseudomonas aeruginosa", "settings": "strain 9882-80 (O11); FIG. 2B", "protocol": "This example describes the evaluation of prioritized human IgG1 antibodies to promote OPK of P. aeruginosa. […] OPK assays were performed as described in (DiGiandomenico, A., et al., Infect Immun 72, 7012-7021 (2004)), with modifications. Briefly, assays were performed in 96-well plates using 0.025 ml of each OPK component; P. aeruginosa strains; diluted baby rabbit serum; differentiated HL-60 cells; and monoclonal antibody. In some OPK assays, luminescent P. aeruginosa strains, which were constructed as described (Choi, K. H., et al., Nat Methods 2, 443-448 (2005)), were used. Luminescent OPK assays were performed as described above but with determination of relative luciferase units (RLUs) using a Perkin Elmer ENVISION Multilabel plate reader (Perkin Elmer).\nThe ability of the WapR-004 and Cam-003 antibodies to mediate OPK activity against another clinically relevant 0-antigen serotype strain, 9882-80.lux, was evaluated."}, "[2]": {"tested_on": "P. aeruginosa strains (PAO1, 33356, 6294, 6077, 6206)", "experiment": "Acute pneumonia model in mice, organ burden (CFU in lung, spleen, kidneys)", "type": "in vivo, Pseudomonas aeruginosa", "protocol": "(§1) Antibodies or PBS were administered 24 hours before infection in each model. P. aeruginosa acute pneumonia, keratitis, and thermal injury infection models were performed as described (DiGiandomenico, A., et al., Proc Natl Acad Sci USA 104, 4624-4629 (2007)), with modifications. In the acute pneumonia model, BALB/c mice (The Jackson Laboratory) were infected with P. aeruginosa strains suspended in a 0.05 ml inoculum. In the thermal injury model, CF-1 mice (Charles River) received a 10% total body surface area burn with a metal brand heated to 92° C. for 10 seconds. Animals were infected subcutaneously with P. aeruginosa strain 6077 at the indicated dose. For organ burden experiments, acute pneumonia was induced in mice followed by harvesting of lungs, spleens, and kidneys 24 hours post-infection for determination of CFU.\nOrgan burden of Pseudomonas-infected mice was also studied in response to administration of V2L2. FIG. 14 (A) Mice were treated with either 1 mg/kg R347 (control), or 1 mg/kg, 0.2 mg/kg, or 0.07 mg/kg of V2L2 and then were infected intranasally with 1.2×10^6 cfu of Pseudomonas 6206. FIG. 14 (B) Mice were also treated with either 15 mg/kg R347 (negative control); 15.0 mg/kg, 5.0 mg/kg, or 1.0 mg/kg mAb166 (positive control); or 5.0 mg/kg, 1.0 mg/kg, or 0.2 mg/kg V2L2 and then were infected intranasally with 5.5×10^6 cfu of Pseudomonas 6206.\nThe in vivo effect of combination administration of anti-Psl and anti-PcrV binding domains was further studied in mice using the antibodies V2L2 and WapR-004 (RAD). Groups of mice were treated with R347 (2.1 mg/kg—negative control), V2L2 (0.1 mg/kg), W4-RAD (0.5 mg/kg), or V2L2/W4 combination (either 0.1, 0.5, 1.0 or 2.0 mg/kg each). Twenty-four hours post-administration of antibody, all mice were infected with an inoculum containing 5.25×10^5 cfu 6206 (O11-ExoU+). Twenty-four hours post infection, lungs, spleens, and kidneys were harvested, homogenized, and plated for colony forming unit (CFU) identification per gram of tissue."}, "[3]": {"tested_on": "P. aeruginosa strains (PAO1, 33356, 6294, 6077, 6206, PA103A)", "experiment": "Acute pneumonia model in mice, survival", "type": "in vivo, Pseudomonas aeruginosa", "settings": "for protection from challenge: 45 and 15 mg/kg; for survival compared to controls: 45, 15, 5 mg/kg 24 hours before infection", "protocol": "as §1\nThe in vivo effect of administration of an anti-PcrV antibodies was studied in mice using an acute pneumonia model. Groups of mice were treated with either increasing concentrations of the V2L2 antibody, a positive control anti-PcrV antibody (mAb166), or a negative control (R347), as shown in FIG. 13 (A-B). Groups of mice were also treated with either increasing concentrations of the V2L2 antibody, the PcrV antibody PcrV-02, or a negative control (R347), as shown in FIG. 13 (C-D). Twenty-four hours after treatment, all mice were infected with 5×10^7 CFU (C) Pseudomonas aeruginosa 6294 (06) or (D) PA103A (O11).\nGroups of mice were treated with either increasing concentrations of the 11A6, 3G5 or V2L7, the same concentrations of 29D2, 1F3, 1E6, V2L2, LE10, SH3, 4A8, 2H3, or 21F1, increasing concentrations of the 29D2, increasing concentrations of the V2L2, the PcrV antibody PcrV-02, or a negative control (R347), as shown in FIG. 13 (E-H). Mice were injected intraperitoneally (IP) with mAbs 24 hours prior to intranasal infection with Pseudomonas strain 6077 (1×10^6 CFU/animal)."}}}
{"substance": "Cam-003: anti-Psl human IgG1 monoclonal antibody; VH SEQ ID NO:1, VL SEQ ID NO:2", "values": [{"measurement": "OPK activity", "setting": "[1]", "value": "OPK activity extends to strain 9882-80 (O11)"}, {"measurement": "viable CFU vs. R347, Mann-Whitney U-test P", "setting": "[2]; 6077 1×10^6 CFU, lung, 45 mg/kg, FIG. 7D", "value": 0.0005}, {"measurement": "viable CFU vs. R347, Mann-Whitney U-test P", "setting": "[2]; 6077, kidneys, 5 mg/kg, FIG. 7D", "value": 0.0021}, {"measurement": "viable CFU vs. R347, Mann-Whitney U-test P", "setting": "[2]; 6077, kidneys, 15 mg/kg, FIG. 7D", "value": 0.0355}, {"measurement": "viable CFU vs. R347, Mann-Whitney U-test P", "setting": "[2]; 6077, kidneys, 45 mg/kg, FIG. 7D", "value": 0.0191}, {"measurement": "viable CFU vs. R347, Mann-Whitney U-test P", "setting": "[2]; 6077, lung, 5 mg/kg, FIG. 7D", "value": 0.0007}, {"measurement": "viable CFU vs. R347, Mann-Whitney U-test P", "setting": "[2]; 6077, lung, 15 mg/kg, FIG. 7D", "value": 0.0003}, {"measurement": "viable CFU vs. R347, Mann-Whitney U-test P", "setting": "[2]; 6077, spleen, 5 mg/kg, FIG. 7D", "value": 0.0089}, {"measurement": "viable CFU vs. R347, Mann-Whitney U-test P", "setting": "[2]; 6077, spleen, 15 mg/kg, FIG. 7D", "value": 0.0089}, {"measurement": "viable CFU vs. R347, Mann-Whitney U-test P", "setting": "[2]; 6077, spleen, 45 mg/kg, FIG. 7D", "value": 0.0015}, {"measurement": "viable CFU vs. R347, Mann-Whitney U-test P", "setting": "[2]; 6294 6.25×10^6 CFU, lung, 5 mg/kg, FIG. 7C", "value": 0.0068}, {"measurement": "viable CFU vs. R347, Mann-Whitney U-test P", "setting": "[2]; 6294 6.25×10^6 CFU, lung, 15 mg/kg, FIG. 7C", "value": 0.0039}, {"measurement": "viable CFU vs. R347, Mann-Whitney U-test P", "setting": "[2]; 6294 6.25×10^6 CFU, lung, 45 mg/kg, FIG. 7C", "value": 0.0003}, {"measurement": "viable CFU vs. R347, Mann-Whitney U-test P", "setting": "[2]; 6294 6.25×10^6 CFU, spleen, 5 mg/kg, FIG. 7C", "value": 0.0012}, {"measurement": "viable CFU vs. R347, Mann-Whitney U-test P", "setting": "[2]; 6294 6.25×10^6 CFU, spleen, 15 mg/kg, FIG. 7C", "value": 0.0230}, {"measurement": "viable CFU vs. R347, Mann-Whitney U-test P", "setting": "[2]; 6294 6.25×10^6 CFU, spleen, 45 mg/kg, FIG. 7C", "value": 0.0057}, {"measurement": "viable CFU vs. R347, Mann-Whitney U-test P", "setting": "[2]; 33356 1×10^7 CFU, lung, 45 mg/kg, FIG. 7B", "value": 0.0010}, {"measurement": "viable CFU vs. R347, Mann-Whitney U-test P", "setting": "[2]; 33356, lung, 5 mg/kg, FIG. 7B", "value": 0.0045}, {"measurement": "viable CFU vs. R347, Mann-Whitney U-test P", "setting": "[2]; PAO1 1.1×10^7 CFU, lung, 45 mg/kg, FIG. 7A", "value": 0.0015}, {"measurement": "viable CFU vs. R347, Mann-Whitney U-test P", "setting": "[2]; PAO1, kidneys, 15 mg/kg, FIG. 7A", "value": 0.0056}, {"measurement": "viable CFU vs. R347, Mann-Whitney U-test P", "setting": "[2]; PAO1, kidneys, 45 mg/kg, FIG. 7A", "value": 0.0092}, {"measurement": "viable CFU vs. R347, Mann-Whitney U-test P", "setting": "[2]; PAO1, lung, 5 mg/kg, FIG. 7A", "value": 0.0015}, {"measurement": "viable CFU vs. R347, Mann-Whitney U-test P", "setting": "[2]; PAO1, lung, 15 mg/kg, FIG. 7A", "value": 0.0021}, {"measurement": "viable CFU vs. R347, Mann-Whitney U-test P", "setting": "[2]; PAO1, spleen, 15 mg/kg, FIG. 7A", "value": 0.0367}, {"measurement": "viable CFU vs. R347, Mann-Whitney U-test P", "setting": "[2]; PAO1, spleen, 45 mg/kg, FIG. 7A", "value": 0.0120}, {"measurement": "organ burden, dose dependence", "setting": "[2]; cytotoxic strain 6077, FIG. 7D", "value": "the low dose was as effective as the higher dose"}, {"measurement": "dissemination to the spleen and kidneys", "setting": "[2]; mice infected with PAO1, 6294 and 6077, FIG. 7A, C, D", "value": "marked effect in reducing dissemination to the spleen and kidneys"}, {"measurement": "lung burden", "setting": "[2]; strains PAO1, 33356, 6294, 6077, FIG. 7A-D", "value": "effective at reducing P. aeruginosa lung burden against all four strains tested"}, {"measurement": "survival vs. R347, Log-rank test P", "setting": "[3]; 6077 1×10^6 CFU, 5 mg/kg, FIG. 6D", "value": 0.0001}, {"measurement": "survival vs. R347, Log-rank test P", "setting": "[3]; 6294 7×10^6 CFU, 5 mg/kg, FIG. 6C", "value": 0.0212}, {"measurement": "survival vs. R347, Log-rank test P", "setting": "[3]; 6294 7×10^6 CFU, 15 mg/kg, FIG. 6C", "value": 0.0019}, {"measurement": "survival vs. R347, Log-rank test P", "setting": "[3]; 6294 7×10^6 CFU, 45 mg/kg, FIG. 6C", "value": 0.0007}, {"measurement": "survival vs. R347, Log-rank test P", "setting": "[3]; 33356 3×10^7 CFU, 5 mg/kg, FIG. 6B", "value": 0.0373}, {"measurement": "survival vs. R347, Log-rank test P", "setting": "[3]; 33356 3×10^7 CFU, 15 mg/kg, FIG. 6B", "value": 0.0012}, {"measurement": "survival vs. R347, Log-rank test P", "setting": "[3]; 33356 3×10^7 CFU, 45 mg/kg, FIG. 6B", "value": 0.0012}, {"measurement": "survival vs. R347, Log-rank test P", "setting": "[3]; PAO1 1.6×10^7 CFU, 5 mg/kg, FIG. 6A", "value": 0.0033}, {"measurement": "survival vs. R347, Log-rank test P", "setting": "[3]; PAO1 1.6×10^7 CFU, 15 mg/kg, FIG. 6A", "value": 0.0003}, {"measurement": "protection from challenge", "setting": "[3]; cytotoxic strain 6077, FIG. 6D", "value": "complete protection"}, {"measurement": "survival", "setting": "[3]; strain 6077, 5 mg/kg, FIG. 6D", "value": 90, "unit": "%"}, {"measurement": "survival compared to controls", "setting": "[3]; strain 6294, FIG. 6C", "value": "significant concentration-dependent survival"}, {"measurement": "survival", "setting": "[3]; strain 33356, 5 mg/kg, FIG. 6B", "value": 80, "unit": "%"}, {"measurement": "protection from challenge", "setting": "[3]; strain 33356, FIG. 6B", "value": "complete protection"}, {"measurement": "survival compared to controls", "setting": "[3]; strain PAO1, FIG. 6A", "value": "significant concentration-dependent survival"}]}
